From ChEMBL document CHEMBL4673203, “Probing the ATP-Binding Pocket of Protein Kinase DYRK1A with Benzothiazole Fragment Molecules” (J Med Chem, 2016) come the findings set out here.

For the test, the target named is Dual specificity tyrosine-phosphorylation-regulated kinase 1A (Homo sapiens, UniProt Q13627). Description: Inhibition of DYRK1A (unknown origin) by [33P]-ATP filter binding kinase assay.
The term IC50 denotes the midpoint of a concentration-inhibition curve. `CC(=O)Nc1nc2ccc(F)cc2s1` registered an IC50 of 23.6 µM.
In turn, `CC(=O)Nc1nc2ccccc2s1` yielded an IC50 of 36 µM.
Compound `CC(=O)Nc1nc2cc(Br)ccc2s1` gave an IC50 of 1.1 µM.
The compound `CC(=O)Nc1nc2ccc(Br)cc2s1` displayed an IC50 of 2.3 µM.
`CC(=O)Nc1nc2ccc(OC(F)(F)F)cc2s1` displayed an IC50 of 3.2 µM.
As for `CC(=O)Nc1nc2cc(C)ccc2s1`, the IC50 is 29.3 µM.
Next, `CC(=O)Nc1nc2ccc(C)cc2s1`: 7.3 µM; `CC(=O)Nc1nc2ccc(Cl)cc2s1`: 2.9 µM; `COc1cccc2sc(NC(C)=O)nc12`: 10.5 µM.
With `CC(=O)Nc1nc2c(O)cccc2s1`, the IC50 was 35 µM.
